Assay results as given in US20230000876A1, “TREATING CANCERS WITH A CYCLIN-DEPENDENT KINASE INHIBITOR” (Nuvation Bio Inc., priority 2021, published 2023).

Tested on: 22Rv1 tumors
Assay: 22Rv1 prostate tumor model (Example 3)
Type: in vivo, male Balb/c nude mice
Details: for T/C / TGI: PG-D24
Method: The in vivo anti-tumor efficacy of the compound of formula (I) either alone or in combination with enzalutamide prostate tumor model on male Balb/c nude mice was evaluated. The cell line is derived from a xenograft that was serially propagated in mice after castration—induced regression and relapse of the parental, androgen-dependent CWR22 xenograft.
In the study, the compound of formula (I) was dosed orally (po) once daily (QD) and enzalutamide, when administered, was dosed orally once daily for 25 days, as shown in Table 8.
The 22Rv1 tumor cells were maintained in vitro in RPMI1640 medium supplemented with 10% heat inactivated fetal bovine serum at 37° C. in an atmosphere of 5% CO2 in air. The tumor cells were routinely subcultured twice weekly. The cells growing in an exponential growth phase were harvested and counted for tumor inoculation.
Each mouse was inoculated subcutaneously at the right flank with 22Rv1 tumor cells (5*10^6) with 50% Matrigel for tumor development. The treatments were started on day 7 after tumor inoculation when the average tumor volume reached 94 mm^3. A total of 48 mice were selected and assigned into 6 groups. The testing articles were administrated to the mice according to Table 8.
The major endpoint was to see if the tumor growth could be delayed or mice could be cured. Tumor size was measured twice weekly in two dimensions using a caliper, and the volume was expressed in mm^3 using the formula: V=0.5 a×b^2 where a and b are the long and short diameters of the tumor, respectively. The tumor sizes are then used for the calculation of T/C and TGI values.
The T/C value (in percent) is an indication of antitumor effectiveness; T and C are the mean volume of the treated and control groups, respectively, on a given day.
TGI was calculated for each group using the formula: TGI (%)=[1−(Ti−T0)/(Vi−V0)]×100; Ti is the average tumor volume of a treatment group on PG-Di, T0 is the average tumor volume of the treatment group on the day of treatment start, Vi is the average tumor volume of the vehicle control group on the same day with Ti, and V0 is the average tumor volume of the vehicle group on the day of treatment start.
All groups were taken down on PG-D24 and PG-D25 when the average tumor size of vehicle group reached 2305 mm^3.
Summary statistics, including mean and the standard error of the mean (SEM), are provided for the tumor volume of each group at each time point. For comparison among groups, a one-way ANOVA was performed. All the analysis were conducted using GraphPad Prism software. p<0.05 was considered to be statistically significant.

CC(C)N1CCOc2c(F)cc(-c3nc(Nc4ccc(C5CCN(C)CC5)cn4)ncc3F)cc21 [Compound (I), 5-fluoro-4-(8-fluoro-4-isopropyl-3,4-dihydro-2H-benzo[b][1,4]oxazin-6-yl)-N-(5-(1-methylpiperidin-4-yl)pyridin-2-yl)pyrimidin-2-amine]
T/C (10 mg/kg QD): 61.13% | TGI (10 mg/kg QD): 40.49% | T/C (Compound (I) 30 mg/kg QD): 28.34% | TGI (Compound (I) 30 mg/kg QD): 74.71% | Tumor volume (mean ± SEM) (Group 3, 10 mg/kg PO QD, day 0): 94 ± 5 mm^3 | Tumor volume (mean ± SEM) (Group 3, 10 mg/kg PO QD, day 3): 154 ± 12 mm^3 | Tumor volume (mean ± SEM) (Group 3, 10 mg/kg PO QD, day 7): 257 ± 28 mm^3 | Tumor volume (mean ± SEM) (Group 3, 10 mg/kg PO QD, day 10): 378 ± 40 mm^3 | Tumor volume (mean ± SEM) (Group 3, 10 mg/kg PO QD, day 14): 598 ± 58 mm^3 | Tumor volume (mean ± SEM) (Group 3, 10 mg/kg PO QD, day 17): 825 ± 87 mm^3 | Tumor volume (mean ± SEM) (Group 3, 10 mg/kg PO QD, day 21): 1152 ± 114 mm^3 | Tumor volume (mean ± SEM) (Group 3, 10 mg/kg PO QD, day 24): 1409 ± 102 mm^3 | Tumor volume (mean ± SEM) (Group 4, 30 mg/kg PO QD, day 0): 94 ± 4 mm^3 | Tumor volume (mean ± SEM) (Group 4, 30 mg/kg PO QD, day 3): 131 ± 13 mm^3 | Tumor volume (mean ± SEM) (Group 4, 30 mg/kg PO QD, day 7): 165 ± 25 mm^3 | Tumor volume (mean ± SEM) (Group 4, 30 mg/kg PO QD, day 10): 188 ± 30 mm^3 | Tumor volume (mean ± SEM) (Group 4, 30 mg/kg PO QD, day 14): 289 ± 40 mm^3 | Tumor volume (mean ± SEM) (Group 4, 30 mg/kg PO QD, day 17): 398 ± 60 mm^3 | Tumor volume (mean ± SEM) (Group 4, 30 mg/kg PO QD, day 21): 546 ± 67 mm^3 | Tumor volume (mean ± SEM) (Group 4, 30 mg/kg PO QD, day 24): 653 ± 64 mm^3
